In US20210395250A1, “NOVEL CRYSTAL OF (3S)-3-[2-(6-AMINO-2-FLUOROPYRIDIN-3-YL)-4-FLUORO-1H-IMIDAZOL-5-YL]-7-[5-CHLORO-2-(1H-TETRAZOL-1-YL)PHENYL]-2,3-DIHYDROINDOLIZIN-5(1H)-ONE” (priority 2018, published 2021):
Converted amounts (≈) assume the structure as drawn. Read-outs that look alike come from different tables or passages of the source.

Assays:
[1] = Evaluation of oral absorption after oral administration of suspensions to monkeys; conditions: for oral absorption rate (%): cynomolgus monkeys/male, fasted, 1 mg/kg oral suspension in 0.5% aqueous methyl cellulose, oral AUC / intravenous AUC (1 mg/kg) x 100
Procedure: The measurement of oral absorption was carried out under the following conditions.
Each of the suspensions was prepared with a 0.5% aqueous methyl cellulose solution at a concentration of 0.33 mg/mL (in terms of free base content). Each of the suspensions was administered to monkeys (cynomolgus monkeys/male), which had been fasted since the day before, in the stomach thereof forcibly with a sonde. The amount of administration was adjusted depending on the body weight of each of the monkeys so that the dosage amount became 1 mg/kg.
After the administration of the suspensions (liquid pharmaceuticals), at the timing of 0.25, 0.5, 1, 2, 4, 7 and 24 hours after the administration, blood (0.5 mL) was collected from the cephalic vein with a heparin-added syringe. The collected blood was centrifuged at 10000 G for 5 minutes to separate plasma from the blood. In the evaluation of the oral absorption of the test compounds, data obtained when the test compounds were administered intravenously at the same dose amounts (1 mg/kg) were employed. The oral absorption rate (%) was calculated by dividing an AUC (area under the blood concentration-time curve) value obtained in the oral administration by an AUC value obtained in the intravenous administration and then multiplying the resultant value by 100.
The whole volume of the solution was added to Oasis HLB μElution Plate through which acetonitrile (200 μL) and purified water (200 μL) had been passed, and was then sucked under reduced pressure. Purified water (200 μL) was added to the solution, and the resultant solution was washed by sucking under reduced pressure. Acetonitrile (200 μL) was added to the solution, the resultant solution was sucked under reduced pressure, and an eluate was collected in a 96-well plate. The eluate (10 μL) was added to a 0.1% aqueous formic acid solution/acetonitrile (2/1) solution (290 μL), and the resultant solution was stirred and was then analyzed by LC/MS/MS.
The analysis by LC/MS/MS was carried out under the following conditions.
Measurement device: API-5000 (manufactured by Applied Biosystems/MDS SCIEX) Analysis column: Cadenza CD-C18 (2.0 mm I.D.×100 mm, 3 μm) Flow rate: 0.4 mL/min. Components of mobile phase: a 0.1% aqueous formic acid solution/acetonitrile (0 minute: 65/35, 4.0 minutes: 65/35, 4.1 minutes: 10/90, 5.0 minutes: 10/90, 5.1 minutes: 65/35, 7.0 minutes: 65/35) Scan type: MRM (Multiple Reaction Monitoring)

[2] = Evaluation of solubility in JP 1st fluid and artificial intestinal juice (FaSSIF), HPLC; assay type: physicochemical; conditions: after 24 hours; for solubility at 24 h: 37 °C, thermodynamic from solid
Procedure: The measurement of solubility was carried out under the following conditions.
About 3 mg of each of the compounds of the present invention was weighed in a test tube, then a stirrer and 5 mL of each of an artificial intestinal juice (FaSSIF; Reference Document 1: Pharmaceutical Research, vol. 20, pp. 1674-1680, 2003; Reference Document 2: Biological & Pharmaceutical Bulletin, vol. 34, pp. 401-407, 2011) and JP 1st fluid which had been warmed to 37° C. were added to the test tube, and then the test tube was sealed hermetically. The test tube was installed in a solubility test device (Gilson, Quad-Z 215), and the solution was stirred at 37° C. and 700 rpm. After 0.25, 0.5, 1, 3, 6 and 24 hours, an aliquot of the solution in the test tube was collected. The collected solution was filtrated through a filter, and a filtrate was diluted two-folds with acetonitrile. A diluted solution of the artificial intestinal juice was centrifuged at 3000 rpm for 5 minutes, and a supernatant was used as a sample solution. A diluted solution of the JP 1st fluid was used as is as a sample solution. Solubility was calculated by a high-performance liquid chromatography method.
Column: Waters Xbridge ShieldRP18 (4.6 mm (inner diameter)×50 mm, 3.5 μm) Column temperature: 40° C. Component of mobile phase: 20 mM potassium dihydrogen phosphate (pH 3.0)/acetonitrile (0 minute: 70/30, 5 minutes: 25/75)
Flow rate: 1.0 mL/min Sample rack temperature: 15° C. Sample injection amount: 10 μL Measurement time: 5 minutes Retention time: 2.6 minutes

[3] = Evaluation of hygroscopicity: isothermal absorption curve measurement (DVS); assay type: physicochemical
Procedure: Physical Chemical Example 1: Evaluation of Hygroscopicity
An isothermal absorption curve measurement (DVS) was carried out under the following conditions.
Device: DVS Intrinsic, manufactured by SMS
Measurement temperature: 25° C.
Measurement range: relative humidity of 0 to 95%
Interval of measurement: relative humidity of 5%

[4] = artificial intestinal juice (FaSSIF), 37° C., 700 rpm
[5] = artificial intestinal juice (FaSSIF), 37° C.

Row | Compound | oral absorption rate (%) [1] | Solubility, JP 1st fluid ([2]; JP 1st fluid, 37° C., 700 rpm) | Solubility, Artificial intestinal juice [2, 4] | solubility in the artificial intestinal juice [2, 5] | hygroscopicity (in words) [3] | other results
1 | (3S)-3-[2-(6-Amino-2-fluoropyridin-3-yl)-4-fluoro-1H-imidazol-5-yl]-7-[5-chloro-2-(1H-tetrazol-1-yl)phenyl]-2,3-dihydroindolizin-5(1H)-one-nicotinamide (2/1) [Example 4] | 44% | 77 μg/m | 60 μg/m | 60 µg/mL |  | 
2 | Nc1ccc(-c2nc(F)c([C@@H]3CCc4cc(-c5cc(Cl)ccc5-n5cnnn5)cc(=O)n43)[nH]2)c(F)n1 [Example 5, (3S)-3-[2-(6-Amino-2-fluoropyridin-3-yl)-4-fluoro-1H-imidazol-5-yl]-7-[5-chloro-2-(1H-tetrazol-1-yl)phenyl]-2,3-dihydroindolizin-5(1H)-one-3-hydroxybenzoic acid (1/1)] | ~100% | 75 μg/m | 60 μg/m | 60 µg/mL (≈ 118 µM) |  | solubility in the JP 1st fluid ([2]; JP 1st fluid, 37° C.): 75 µg/mL (≈ 148 µM); weight change rate ([3]; DVS, 25° C., relative humidity of 0 to 95%): less than 1%
3 | Nc1ccc(-c2nc(F)c([C@@H]3CCc4cc(-c5cc(Cl)ccc5-n5cnnn5)cc(=O)n43)[nH]2)c(F)n1 [Example 1(11), (3S)-3-[2-(6-amino-2-fluoro-3-pyridinyl)-4-fluoro-1H-imidazol-5-yl]-7-[5-chloro-2-(1H-tetrazol-1-yl)phenyl]-2,3-dihydro-5(1H)-indolizinone dihydrate] |  |  |  |  | high hygroscopicity | oral absorption rate (%) ([1]; dihydrate): 26%; oral absorption (in words) ([1]; monkeys, oral): poor oral absorption; solubility at 24 h ([2]; JP 1st fluid, simulated gastric fluid, JP 1st fluid, 700 rpm, read-out: Solubility, JP 1st fluid): 41 µg/mL; solubility at 24 h ([2]; JP 1st fluid, simulated gastric fluid, JP 1st fluid, read-out: solubility in the JP 1st fluid): 41 µg/mL; solubility at 24 h ([2]; artificial intestinal juice (FaSSIF), fassif, artificial intestinal juice (FaSSIF), 700 rpm, read-out: Solubility, Artificial intestinal juice): 47 µg/mL; solubility at 24 h ([2]; artificial intestinal juice (FaSSIF), fassif, artificial intestinal juice (FaSSIF), read-out: solubility in the artificial intestinal juice): 47 µg/mL
4 | (3S)-3-[2-(6-Amino-2-fluoropyridin-3-yl)-4-fluoro-1H-imidazol-5-yl]-7-[5-chloro-2-(1H-tetrazol-1-yl)phenyl]-2,3-dihydroindolizin-5(1H)-one-3-hydroxybenzoic acid (1/1) [Example 5] |  |  |  |  | low hygroscopicity | 
